Results as given in patent publication US20030032674A1, “Use of unsaturated fatty acids to treat severe inflammatory diseases” (priority 2001, published 2003).

What was measured:
[1] = test system: COX-2 expression; experiment: COX-2 immunoblot (Western blot) in RAW 264.7 cells; assay type: cell-based, murine; conditions: RAW 264.7; 75 μM fatty acid
Experimental: (§1) Cell culture—RAW 264.7 cells (a murine macrophage-like cell line, ATCC TIB-71), 293T cells (a human embryonic kidney cell line, provided by Sam Lee, Beth Israel Hospital. Boston, Mass.), and HT-29 cells (a human colon adenocarcinoma cell line, ATCC HTB-38) were cultured in Dulbecco's modified Eagle's medium (DMEM) containing 10% (v/v) heat-inactivated fetal bovine serum (FBS, Intergen) and 100 units/ml Penicillin and […] Streptomycin (GIBCO-BRL) at 37° C. in a 5% CO2/air environment. Cells (2×10^6) were plated in 60-mm dishes and cultured for an additional 18 hours to allow the number of cells to approximately double. Cells were maintained in serum-poor (0.25% FBS) medium for another 18 hours prior to the treatment with indicated reagents.
Preparation of fatty acids-albumin complexes—All fatty acids were solubilized in ethanol, and then combined with fatty acid-free and low-endotoxin BSA at a molar ratio of 10:1 (fatty acid: albumin) in serum-poor medium (0.25% FBS). Fatty acids-albumin complex solution was freshly prepared prior to each experiment.
Sodium dodecyl sulfate-polyacrylamide gel electrophoresis (SDS-PAGE) and immunoblotting—These procedures were performed as previously described in D. Hwang et al., “Expression of mitogen-inducible cyclooxygenase induced by lipopolysaccharide: mediation through both mitogen-activated protein kinase and NF-kappaB signaling pathways in macrophages,” Biochem. Pharmacol., vol. 54, pp. 87-96 (1997). Briefly, solubilized proteins were subjected to 8% SDS-PAGE for COX-2, iNOS, IL- 1α and GAPDH immunoblot analyses. Following electrophoresis, the gel was transferred to a PVDF membrane and the membrane was blocked to prevent non-specific binding of antibodies in TBS-T [20 mM Tris HCl, 137 mM NaCl, 0.05% (v/v) Tween 20, pH 7.6] containing 5% non-fat dried milk (Carnation). Immunoblotting was performed using respective polyclonal antibodies followed by incubation with anti-rabbit IgG coupled to horseradish peroxidase. The membrane was exposed on an X-ray film (Kodak) using ECL western blot detection reagents (Amersham).
After 11 h, cell lysates were analyzed by COX-2, iNOS, IL-1α, or GAPDH immunoblot using a Western blot analysis.
The cell lysates were analyzed by COX-2 or GAPDH immunoblot.
RAW 264.7 cells were pretested with various concentrations (5, 10, 20, and 50 μM) of docosahexaenoic acid (C22:6n-3) for 3 hours, and then stimulated with LPS (100 ng/ml) for 8 hours and analyzed by COX-2, iNOS, IL-1 a or GAPDH immunoblot.
Cells stably transfected with NFκB(5×) or COX-2 promoter reporter genes were pretreated with various concentrations of each fatty acid for 3 hrs. Cells were then treated with LPS (200 ng/ml). After 8 hrs, cell lysates were prepared and luciferase activities were determined. Data are expressed as a percentage of LPS treatment alone. The results for NFκB and COX-2 expression are given in FIGS. 8A and 8B, respectively. The values are mean±SEM (n=3) of RLA, relative luciferase activity. In FIG. 8C, the cells were pretreated with DHA (20 μM) or C12:0 (75 μM) for 3 hrs and further stimulated with LPS (200 ng/ml for DHA; 1 ng/ml for C12:0). After 8 hr, cell lysates were analyzed by COX-2 and actin immunoblotting.

[2] = test system: MyD88(CA); experiment: NFκB reporter in 293T cells transfected with constitutively active MyD88; assay type: cell-based, human
Text: Plasmids and DNA Constructs—All plasmids and constructs were obtained or made as reported in either S. H. Rhee and D. Hwang, “Murine TOLL-like receptor 4 confers lipopolysaccaride responsiveness as determined by activation of NFκB and expression of the inducible cyclooxygenase,” Journal of Biological Chemistry, vol. 275, pp. 34035-34040 (2000); and J. Y. Lee et al., “Saturated fatty acids, but not unsaturated fatty acids, induce the expression of cyclooxygenase-2 mediated through TOLL-like receptor 4,” Journal of Biological Chemistry, vol. 276, pp. 16683-16689 (2001). Briefly, the luciferase reporter plasmids (pGL2) containing the promoter region of the murine COX-2 gene (−3201/+93 or −1017/+93) were provided by David Dewitt (Michigan State University, East Lansing, Mich.). To prepare the wild-type COX-2 promoter fragment, polymerase chain reaction (PCR) was performed with the primers named Kpn-COX2-For and Hind-COX2-Rev using the murine COX-2 (−1017/+93) luciferase reporter plasmid as a template. To prepare the mutant COX-2 promoter fragment containing mutated NFκB site, Kpn-COX2-Fmut and Hind-COX2-Rev were used as primers. Each PCR fragment was inserted into the KpnI and HindIII sites of pGL2 to generate the wild-type or mutant COX-2 (−410/+86) luciferase reporter constructs, respectively. Sequences for wild-type NFκB site and the primers were used as reported elsewhere. […]

[3] = test system: COX-2 expression; experiment: COX-2 immunoblot in TNFα-treated HT-29 colon cancer cells; assay type: cell-based, human; conditions: pretreated 3 hours, TNFα 20 ng/ml 8 hours
Experimental: as §1
Sodium dodecyl sulfate-polyacrylamide gel electrophoresis (SDS-PAGE) and immunoblotting—These procedures were performed as previously described in D. Hwang et al., “Expression of mitogen-inducible cyclooxygenase induced by lipopolysaccharide: mediation through both mitogen-activated protein kinase and NF-kappaB signaling pathways in macrophages,” Biochem. Pharmacol., vol. 54, pp. 87-96 (1997). […]
Colon cancer cells (HT-29) were pretested with various concentrations of docosahexaenoic acid (C22:6n-3) for 3 hours and then treated with TNFα (20 ng/ml) for 8 hours. Cell lysates were analyzed by COX-2 and GAPDH immunoblot.

[4] = target: T1, COX-2 (Ovis aries, UniProt P79208); conditions: cited from earlier work
T1 sequence (P79208 17-603): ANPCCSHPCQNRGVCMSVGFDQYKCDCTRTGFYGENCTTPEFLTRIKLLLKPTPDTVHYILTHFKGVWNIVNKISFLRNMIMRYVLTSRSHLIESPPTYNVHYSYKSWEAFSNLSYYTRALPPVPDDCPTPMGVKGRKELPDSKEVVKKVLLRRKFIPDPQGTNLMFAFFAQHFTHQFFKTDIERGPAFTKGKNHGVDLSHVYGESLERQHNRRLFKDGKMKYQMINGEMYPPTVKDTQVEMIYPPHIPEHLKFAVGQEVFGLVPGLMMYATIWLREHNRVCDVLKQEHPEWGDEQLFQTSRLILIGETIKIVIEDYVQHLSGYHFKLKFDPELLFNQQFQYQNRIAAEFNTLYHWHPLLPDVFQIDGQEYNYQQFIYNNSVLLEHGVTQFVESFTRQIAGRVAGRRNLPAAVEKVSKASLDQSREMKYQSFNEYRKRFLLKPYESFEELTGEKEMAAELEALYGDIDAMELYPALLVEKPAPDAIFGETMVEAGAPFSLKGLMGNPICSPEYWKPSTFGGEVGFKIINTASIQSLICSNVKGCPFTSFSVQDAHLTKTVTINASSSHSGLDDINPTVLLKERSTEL

[5] = test system: COX-2 promoter; experiment: COX-2 promoter luciferase reporter gene assay, transiently transfected RAW 264.7 cells; assay type: cell-based, murine
Text: Plasmids and DNA Constructs—All plasmids and constructs were obtained or made as reported in either S. H. Rhee and D. Hwang, “Murine TOLL-like receptor 4 confers lipopolysaccaride responsiveness as determined by activation of NFκB and expression of the inducible cyclooxygenase,” Journal of Biological Chemistry, vol. 275, pp. 34035-34040 (2000); and J. Y. Lee et al., “Saturated fatty acids, but not unsaturated fatty acids, induce the expression of cyclooxygenase-2 mediated through TOLL-like receptor 4,” Journal of Biological Chemistry, vol. 276, pp. 16683-16689 (2001). Briefly, the luciferase reporter plasmids (pGL2) containing the promoter region of the murine COX-2 gene (−3201/+93 or −1017/+93) were provided by David Dewitt (Michigan State University, East Lansing, Mich.). To prepare the wild-type COX-2 promoter fragment, polymerase chain reaction (PCR) was performed with the primers named Kpn-COX2-For and Hind-COX2-Rev using the murine COX-2 (−1017/+93) luciferase reporter plasmid as a template. To prepare the mutant COX-2 promoter fragment containing mutated NFκB site, Kpn-COX2-Fmut and Hind-COX2-Rev were used as primers. Each PCR fragment was inserted into the KpnI and HindIII sites of pGL2 to generate the wild-type or mutant COX-2 (−410/+86) luciferase reporter constructs, respectively. Sequences for wild-type NFκB site and the primers were used as reported elsewhere. (See Lee et al., 2001). The 2×NFκB-luciferase reporter construct was a gift from Frank Mercurio (Signal Pharmaceuticals, San Diego, Calif.). HSP70-β-galactosidase reporter plasmid was a gift from Robert Modlin (University of California, Los Angeles, Calif.). The expression plasmids for a constitutively active form of TLR4 (DTLR4) and a dominant-negative mutant, DTLR4 (P712H) were prepared as previously described. See S. H. Rhee et al., 2000. The expression plasmid of the wild-type NFκB-inducing kinase (NIK), pRK-NIK(wt) was a gift from Mike Rothe (Tularik, South San Francisco, Calif.). The dominant-negative mutant of inhibitor kB (pCMV4-IkBa(DN)) was provided by Dean Ballard (Vanderbilt University, Nashville, Tenn.). 4×NFκB-luciferase reporter construct was purchased from Clontech (Palo Alto, Calif.) and used for transient transfection. Heat shock protein 70 (HSP70)-β-galactosidase reporter plasmid was from Robert Modlin (University of Calif., Los Angeles, Calif.). The expression plasmids for a wild-type TLR2 and a dominant-negative mutant [TLR2 (P681H)] were from C. B. Wilson (University of Washington, Seattle, Wash.). Constitutively active chimeric CD4-TLR4 was obtained from C. A. Janeway, Jr. (Yale University, New Haven, Conn.). The constitutively active form of MyD88 (MyD88(ΔToll)) and the dominant-negative mutant, MyD88(ΔDD) were kindly provided by Jurg Tschopp (University of Lausanne, Switzerland). The dominant-negative mutant of mouse PPARg [pCMX-PPARg(L466A/L467A)] was a gift from Ira Schulman (Ligand Pharmaceuticals, San Diego, Calif.). All DNA constructs were prepared in large scale using the EndoFree Plasmid Maxi kit (Qiagen, Chatsworth, Calif.) for transfection.
Transient transfection and luciferase assay—These procedures were performed as described in S. H. Rhee et al., “Murine TOLL-like receptor 4 confers lipopolysaccharide responsiveness as determined by activation of NFκB and expression of the inducible cyclooxygenase,” J. Biol. Chem., vol. 275, pp. 34035-34040 (2000); and J. H. Paik et al., “Two opposing effects of non-steroidal anti-inflammatory drugs on the expression of the inducible cyclooxygenase, Mediation through different signaling pathways,” J. Biol. Chem., vol. 275, pp. 28173-28179 (2000). Briefly, RAW 264.7 cells were plated in 6-well plates (5×10^5 cells/well) and transfected with luciferase reporter plasmids and HSP70-β-galactosidase plasmid as an internal control using SuperFect transfect reagent (Quiagen) according to the manufacturer's instructions. […]

[6] = target: T2, TLR2 (Homo sapiens, UniProt O60603); experiment: NFκB reporter in TLR2-transfected 293T cells; assay type: cell-based; conditions: PamCAG 1 μg/ml, 18 hr
T2 construct: expressed in transfected cells; host or cells: 293T (stated not to express TLR2)
Text: Plasmids and DNA Constructs—All plasmids and constructs were obtained or made as reported in either S. H. Rhee and D. Hwang, “Murine TOLL-like receptor 4 confers lipopolysaccaride responsiveness as determined by activation of NFκB and expression of the inducible cyclooxygenase,” Journal of Biological Chemistry, vol. 275, pp. 34035-34040 (2000); and J. Y. Lee et al., “Saturated fatty acids, but not unsaturated fatty acids, induce the expression of cyclooxygenase-2 mediated through TOLL-like receptor 4,” Journal of Biological Chemistry, vol. 276, pp. 16683-16689 (2001). Briefly, the luciferase reporter plasmids (pGL2) containing the promoter region of the murine COX-2 gene (−3201/+93 or −1017/+93) were provided by David Dewitt (Michigan State University, East Lansing, Mich.). To prepare the wild-type COX-2 promoter fragment, polymerase chain reaction (PCR) was performed with the primers named Kpn-COX2-For and Hind-COX2-Rev using the murine COX-2 (−1017/+93) luciferase reporter plasmid as a template. To prepare the mutant COX-2 promoter fragment containing mutated NFκB site, Kpn-COX2-Fmut and Hind-COX2-Rev were used as primers. […]
Acylation by saturated fatty acids of bacterial lipopeptides is also required for the activation of TLR2. […] After 18 hr, luciferase activities were determined. […]

[7] = test system: NFκB; experiment: NFκB luciferase reporter gene assay, transiently transfected RAW 264.7 cells; assay type: cell-based, murine; conditions: PamCAG 1 μg/ml, 18 hr

T2 sequence (O60603 21-784, species assumed): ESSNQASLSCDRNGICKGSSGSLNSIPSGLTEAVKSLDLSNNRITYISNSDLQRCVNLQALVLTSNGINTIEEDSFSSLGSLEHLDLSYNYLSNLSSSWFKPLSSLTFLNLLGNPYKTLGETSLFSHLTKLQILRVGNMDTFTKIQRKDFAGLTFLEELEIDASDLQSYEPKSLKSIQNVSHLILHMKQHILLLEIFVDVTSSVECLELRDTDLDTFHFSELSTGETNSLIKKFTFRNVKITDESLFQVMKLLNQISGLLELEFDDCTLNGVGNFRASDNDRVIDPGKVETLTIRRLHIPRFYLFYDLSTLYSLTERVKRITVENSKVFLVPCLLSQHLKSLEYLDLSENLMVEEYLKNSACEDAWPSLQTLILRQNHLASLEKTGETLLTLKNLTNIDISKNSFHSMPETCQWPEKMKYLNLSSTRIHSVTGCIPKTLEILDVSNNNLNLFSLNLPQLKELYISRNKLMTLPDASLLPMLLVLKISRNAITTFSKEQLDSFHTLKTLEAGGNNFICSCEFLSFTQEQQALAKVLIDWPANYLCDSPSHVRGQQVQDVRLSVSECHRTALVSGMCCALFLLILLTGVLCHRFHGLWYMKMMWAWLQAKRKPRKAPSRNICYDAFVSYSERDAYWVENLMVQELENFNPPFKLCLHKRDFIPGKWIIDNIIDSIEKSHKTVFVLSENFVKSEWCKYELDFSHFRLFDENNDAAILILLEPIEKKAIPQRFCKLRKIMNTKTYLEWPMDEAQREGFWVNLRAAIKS

Row | Compound | COX-2 expression induced by fatty acid (immunoblot) [1] | effect on COX-2 (inhibition) [4] | also measured
1 | CCCCC/C=C\C/C=C\C/C=C\C/C=C\CCCC(=O)O [arachidonic acid] | unable to induce COX-2 expression |  | 
2 | CCCCCC/C=C/C=C\CCCCCCCC(=O)O [conjugated linoleic acid, 9(Z), 11(E)-octadecadienoic acid] | unable to induce COX-2 expression |  | 
3 | CC/C=C\C/C=C\C/C=C\C/C=C\C/C=C\C/C=C\CCC(=O)O [docosahexaenoic acid] |  |  | effect on NFκB activation induced by MyD88 [2]: does not inhibit; effect on TNFα-induced COX-2 expression (immunoblot) [3]: failed to inhibit
4 | CCCCC/C=C\C/C=C\CCCCCCCC(=O)O [linoleic acid] | unable to induce COX-2 expression | not as effective | 
5 | CCCCCCCCCCCCCC(=O)O [myristic acid] |  | No effect | 
6 | CCCCCCCC/C=C\CCCCCCCC(=O)O [oleic acid] | unable to induce COX-2 expression | no effect | 
7 | CCCCCCCCCCCCCCCC(=O)O [palmitic acid] |  | No effect | COX-2 expression induced by saturated fatty acids (relative luciferase activity) ([5]; saturated fatty acids C8:0-C18:0, 75 μM each, 24 hr): most potent in inducing COX-2 expression
8 | CCCCCCCCCCCCCCC(=O)O [pentadecanoic acid] |  | No effect | 
9 | CCCCCCCCCCCCCCCCCC(=O)O [stearic acid] |  | No effect | 
10 | CC/C=C\C/C=C\C/C=C\CCCCCCCC(=O)O [α-LA, α-linolenic acid] |  | Inhibitory effects | 
11 | palmitoyl-Cys((RS)-2,3-di(palmitoyloxy)-propyl)-Ala-Gly-OH [PamCAG] |  |  | TLR2 activation as determined by NFκB activation [6]: activated TLR2; NFκB activation (endogenous TLR2) [7]: induced; expression of COX-2 (endogenous TLR2) ([5]; RAW 264.7, PamCAG 1 μg/ml, 18 hr): induced
